Assay results: patent publication US12258477B2, “Silicon-substituted rhodamine dyes and dye conjugates” (Life Technologies Corporation, priority 2018, dated 2025)
“Also recorded” adds a separate entry of the source.

Key:
[1] = tested on: Live HeLa cells; experiment: Live cell nuclear staining, fluorescence microscopy vs SiR-Hoechst (Example 2); type: cell-based; settings: 1 μM and 2 μM
Description: The fluorescence intensity of Compound 4 was compared to SiR-Hoechst (Spirochrome, Switzerland) using fluorescence microscopy. Live HeLa cells were stained with SiR-Hoechst or Compound 4 at 1 μM or 2 μM for 30 minutes at 37° C. After washing with LCIS buffer to remove excess dye, images from 5 replicates were collected using the Cy5 channel of a fluorescence microscope and analyzed using HCS Studio software. Representative images of cells are shown in FIGS. 3A-3B (stained with SiR-Hoechst) and FIGS. 3C-3D (stained with Compound 4). […] The mean nuclear signal intensity was 48% higher in the cells stained with Compound 4 than in the cells stained with SiR-Hoechst, based on averaging the ratios of fluorescence intensity at 1 μM and 2 μM.

[2] = tested on: tubulin; experiment: Tubulin staining of live cells with docetaxel probes vs SiR-Taxol (Examples 3, 13); type: cell-based; settings: live HeLa, 0.5 μM, 30 min 37 °C
Description: The fluorescence intensity of Compound 5 (a tubulin probe using docetaxel as the target-binding moiety) was compared to SiR-Taxol (Spirochrome, Switzerland). Live HeLa cells were stained with 0.5 μM Compound 5 or SiR-Taxol for 30 minutes at 37° C. and prepared for imaging. Images are shown in FIGS. 4A-4B (stained with Compound 5), and FIGS. 4C-4D (stained with SiR-Taxol).
The fluorescence intensity of two diasteromers of Compound 5 and a mixture of two isomers was compared to SiR-Taxol (Spirochrome, Switzerland). Live HeLa cells were stained with 0.5 μM of each compound for 30 minutes at 37° C. and prepared for imaging.

[3] = Excitation and emission maxima of compounds dissolved in solvents; type: physicochemical
Description: Certain compounds were tested when dissolved in solvents. Three replicates were performed to determine the excitation and emission maxima.

[4] = tested on: Fixed HeLa cells; experiment: Fixed cell nuclear staining and photostability vs TO-PRO-3 (Example 4); type: cell-based; settings: 1 μM, Cy5 channel
Description: The fluorescence intensity and photostability of Compound 7 were compared with TO-PRO-3, a fixed cell nucleic acid stain with far-red fluorescence. Fixed HeLa cells were stained with 1 μM Compound 7 or TO-PRO-3 for 30 minutes at RT and prepared for imaging using the Cy5 channel of a fluorescence microscope.

[5] = Fluorescence characteristics, dye only dissolved in water; type: physicochemical; settings: for Emission in water (λem) / absorption in water (λabs): Table 6, in water; for shift of absorption maxima to blue when each vinyl group was changed to a methyl: relative to Compound 11
Description: (§1) The fluorescence characteristics of various disclosed compounds and ALEXA FLUOR™ 647 dye (AF647) dissolved in water (dye only) or as goat anti-mouse (GAM) IgG conjugates dissolved in phosphate buffered saline (PBS) were determined. Three replicates were performed to determine the excitation and emission maxima and quantum yield. Quantum yield was measured for the dye only samples.
Experiments were performed to examine the effect of different SiR substitution patterns on absorption maxima using Compounds 10A, 11, 12, and 13. One or both of the vinyl groups of Compound 11 are replaced with methyl in Compounds 10A and 12, respectively. In Compound 13, one methyl group on each of the two exocyclic amines was eliminated relative to Compound 12. […] A 30 nm shift was observed when one methyl group on each of the two exocyclic amines was eliminated (Table 6). Therefore, modification of SiR dyes using groups linked to the SiR moiety through the Si have a smaller effect than the removal of methyl groups.

[6] = Fluorescence characteristics of goat anti-mouse (GAM) IgG conjugates in PBS; type: physicochemical; settings: for Max Abs / Max Em: GAM IgG conjugate in PBS; for Absorption of IgG conjugates / Emission of IgG conjugates: Table 6, IgG conjugates in PBS
Description: as §1
The effect of conjugation of an SiR, in this example Compounds 8, 10A, and 12, to IgG on absorbance (shown in FIG. 11A) and on emission (shown in FIG. 11B) maxima were compared with IgG-AF647. The absorption and emission maxima of the SiR-conjugates (665 nm/690 nm) are approximately 20 nm red-shifted compared with AF647 conjugate. The emission maximum shifted 15 nm to red.

[7] = tested on: Live HeLa cells; experiment: Live cell nuclear staining with ESP-SiR isomers, HeLa (Example 12); type: cell-based; settings: 1 μM, 30 min 37 °C
Description: The fluorescence intensity of each isomer of Compound 4 (Compound 4B and Compound 4C) was compared using fluorescence microscopy. A DMSO stock solution (1 mM) was used to prepare solutions of each isomer to a final concentration of 5, 2.5, 1.25 and 0.6 μM in PBS containing probenecid.
Live HeLa or A549 cells were stained with each concentration of isomer for 30 minutes at 37° C. After washing with LCIS buffer to remove excess dye, images from 5 replicates were collected using the Cy5 channel of a fluorescence microscope and analyzed using HCS Studio software. […] The mean nuclear signal intensity was almost 2-fold higher in both cell types stained with Compound 4B than in the cells stained with Compound 4C at each of the concentrations tested.
The fluorescence intensity of Compound 4B and 4C was compared to SiR-Hoechst (Spirochrome, Switzerland) using fluorescence microscopy. Live HeLa cells were stained with SiR-Hoechst or Compound 4B or 4C at 1 μM for 30 minutes at 37° C. After washing with LCIS buffer to remove excess dye, images from 5 replicates were collected using the Cy5 and D API channels of a fluorescence microscope and analyzed using HCS Studio software.

[8] = tested on: A549 cells; experiment: Photobleaching of dye-labeled secondary antibody conjugates in fixed cells without anti-fade medium; type: cell-based; settings: GAM antibody conjugates (13 DOL 4.7, 14 DOL 4.0, AF647 DOL 4.9); over 700 seconds exposure, no anti-fade medium
Description: A549 cells were plated at a density of 5,000 cells per well on Greiner 96 well plates and allowed to adhere overnight. The following day, they were treated for two hours at 37° C. with 50 μM etoposide to induce phosphorylation of pH2AX for antibody probing, then fixed for 20 minutes at room temperature in 4% PFA, prepared in PBS. After fixation, cells were rinsed 3× in PBS and permeabilized for 20 minutes with 0.1% Triton X-100, prepared in PBS. Following Triton treatment, cells were washed 3× in PBS and placed in blocking solution, made with 3% BSA in PBS. Each plate was treated with primary antibody, prepared in blocking solution at 5 μg/mL, either […]. Following incubation with primary antibody, cells were washed 3× in PBS and stored in blocking solution before probing with secondary antibody. Secondary antibody labeled with Compound 13 (DOL 4.7); Compound 14 (DOL 4.0) or AF647 (DOL 4.9) was prepared from 5 μg/mL in blocking solution and cells were incubated for one hour at room temperature before washing 3× in PBS and moving plates to the CX-5 CellInsight for quantification of signal. The fluorescent signal data was collected every second for over 700 seconds' period. […]
Fluorescence intensity was monitored in samples mounted without anti-fade medium over a period of about 12 minutes of exposure to excitatory light.

[9] = tested on: tubulin; experiment: Immunofluorescence tubulin staining with dye-labeled antibody conjugates vs AF647 (Example 9); type: cell-based, mouse
Description: The fluorescence intensity of SiR conjugates, Compound 10A (DOL=15) and Compound 10A (DOL=10), where DOL is the degree of labeling, were compared to an AF647 conjugate using fluorescence microscopy. Live mouse cells were stained with mouse anti-tubulin conjugated to AF647 (shown in FIG. 12A), or mouse anti-tubulin conjugated with Compound 10A (DOL=15 shown in FIG. 12B) at increasing concentrations for 60 minutes at 25° C. After washing with PBS buffer to remove excess dye, images were collected using the Cy5 channel of a fluorescence microscope and analyzed using integrated software. […] The SiR dyes gave images 6-8 fold dimmer that AF647 in the Cy5 channel, consistent with the shifted maxima discussed above. […] Little to no photobleaching was observed during imaging.

Max Abs ([5]; Dye Only in water) [nm]	Max Em ([5]; Dye Only in water) [nm]	Quantum Yield ([5]; Dye Only in water)	Quantum Yield ([5]; Table 6) [%]	Emission in water (λem) [5] [nm]	absorption in water (λabs) [5] [nm]	Molecule	Max Abs [6] [nm]	Max Em [6] [nm]	Absorption of IgG conjugates [6] [nm]	Emission of IgG conjugates [6] [nm]	also measured
–	–	–	–	–	–	CN1CCN(c2ccc3[nH]c(-c4ccc5[nH]c(-c6ccc(OCCCCNC(=O)CCSCC[Si]7(C)C8=CC(=[N+](C)C)C=CC8=C(c8ccccc8C(=O)[O-])c8ccc(N(C)C)cc87)cc6)nc5c4)nc3c2)CC1 (stereo not shown) [Compound 4]	–	–	–	–	mean nuclear signal intensity, higher than in cells stained with SiR-Hoechst ([1]; live HeLa, 30 min 37 °C, Cy5 channel, averaged ratios of fluorescence intensity): 48%; staining brightness compared with SiR-Hoechst ([1]; live cells): noticeably brighter
–	–	–	–	–	–	CC(=O)O[C@@]12CO[C@@H]1C[C@H](O)[C@@]1(C)C(=O)[C@H](O)C3=C(C)[C@@H](OC(=O)[C@H](O)[C@@H](NC(=O)CCCCCNC(=O)CCSCC[Si]4(C)C5=CC(=[N+](C)C)C=CC5=C(c5ccccc5C(=O)[O-])c5ccc(N(C)C)cc54)c4ccccc4)C[C@@](O)([C@@H](OC(=O)c4ccccc4)C12)C3(C)C (stereo partly shown) [Compound 5]	–	–	–	–	fluorescence signal compared with SiR-Taxol [2]: brighter signal than cells stained with SiR-Taxol; Max Abs ([3]; Solvent MeOH/HCl): 650 nm; Max Em ([3]; Solvent MeOH/HCl): 676 nm
–	–	–	–	–	–	CN(C)c1ccc2c(c1)[Si](C)(C)C1=CC(=[N+](C)C)C=CC1=C2c1ccccc1C(=O)N1CCC(C(=O)O)CC1 [Compound 7A]	–	–	–	–	Max Abs ([3]; Solvent MeOH): 657 nm; Max Em ([3]; Solvent MeOH): 682 nm
–	–	–	–	–	–	CN1CCN(c2ccc3[nH]c(-c4ccc5[nH]c(-c6ccc(OCCCCNC(=O)C7CCN(C(=O)c8ccccc8C8=C9C=CC(=[N+](C)C)C=C9[Si](C)(C)c9cc(N(C)C)ccc98)CC7)cc6)nc5c4)nc3c2)CC1 [Compound 7]	–	–	–	–	staining brightness, Compound 7 vs TO-PRO-3 ([4]; 30 min RT): unexpectedly brighter than TO-PRO-3 staining; fluorescence after a 1 minute exposure to excitation light [4]: still retained substantial fluorescence; Max Abs ([3]; Solvent TE): 672 nm; Max Em ([3]; Solvent TE): 678 nm
670	683	0.38	38	683	670	C=C[Si]1(C=C)c2cc(N(C)C)ccc2C2(OC(=O)c3ccccc32)c2ccc(N(C)C)cc21 [Compound 11, Si,Si-Divinyl-N,N-tetramethyl-SiR]	671	693	671	692	–
–	–	–	–	–	–	CN1CCN(c2ccc3nc(-c4ccc5nc(-c6ccc(OCCCCNC(=O)c7ccc(C(=O)[O-])c(C8=C9C=CC(=[N+](C)C)C=C9[Si](C)(C)c9cc(N(C)C)ccc98)c7)cc6)[nH]c5c4)[nH]c3c2)CC1 [SiR-Hoechst]	–	–	–	–	signal on the DAPI channel [7]: almost no signals were observed
–	–	–	–	–	–	C[n+]1c(/C=C/C=C2\C=CN(CCC[N+](C)(C)C)c3ccccc32)sc2ccccc21 [TO-PRO-3, reference compound]	–	–	–	–	fluorescence after a 1 minute exposure to excitation light [4]: little to no fluorescence was observable; also recorded: more diminished
630	642	0.5	50	642	630	Si,Si-dimethyl-N, N-dimethyl-SiR [Compound 13]	635	655	635	655	resistance to photobleaching [8]: substantially resistant to photobleaching; also recorded: much more resistant to photobleaching; shift of absorption maxima when one methyl group on each of the two exocyclic amines was eliminated ([5]; relative to Compound 12): 30 nm
661	673	0.45	45	673	661	Si,Si-dimethyl-N, N-tetramethyl-SiR [Compound 12]	662	681	664	683	shift of absorption maxima to blue when each vinyl group was changed to a methyl [5]: about 5 nm
–	–	–	41	678	666	Si-vinyl-Si-methyl-N,N-tetramethyl-SiR [Compound 10A]	–	–	668	688	shift of absorption maxima to blue when each vinyl group was changed to a methyl [5]: about 5 nm; photobleaching during imaging / photostability vs AF647 [9]: better photostability than AF647; target specificity, off-target or background fluorescence [9]: no off-target or background fluorescence; brightness compared with AF647 ([9]; Cy5 channel): less bright than AF647
